Laboratory results: patent publication US6225336A, “Compounds having [2.2.1] bicyclo skeleton” (Shionogi & Co., Ltd., priority 1997, dated 2001)

Experiments:
PGD2 Receptor [1] = target: T1, PGD2 Receptor (Homo sapiens, UniProt Q13258); experiment: Binding to PGD2 Receptor (human platelet membrane fraction, [3H]PGD2); conditions: 5 nM [3H]PGD2, pH 7.4, 4° C., 90 min, read-out: Inhibitory activity IC50
T1 construct: endogenous in cells; host or cells: washed human platelets from a healthy volunteer
T1 sequence (Q13258 1-359): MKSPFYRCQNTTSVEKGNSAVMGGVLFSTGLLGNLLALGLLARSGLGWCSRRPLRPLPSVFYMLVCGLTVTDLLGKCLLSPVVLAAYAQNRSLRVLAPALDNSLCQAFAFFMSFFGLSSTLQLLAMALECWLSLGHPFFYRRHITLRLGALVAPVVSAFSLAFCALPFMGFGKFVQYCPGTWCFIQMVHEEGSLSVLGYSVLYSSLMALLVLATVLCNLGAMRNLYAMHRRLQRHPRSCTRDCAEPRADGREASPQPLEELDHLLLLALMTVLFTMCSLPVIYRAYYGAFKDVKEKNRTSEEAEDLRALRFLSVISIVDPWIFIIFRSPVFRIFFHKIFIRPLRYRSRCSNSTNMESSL
Experimental: (1) Preparation of Human Platelet Membrane Fraction
Blood was collected using a plastic syringe containing 3.8% sodium citrate from the vein of healthy volunteers (adult male and female), then put into a plastic test tube and mixed by slow-reversion. The sample was then centrifuged at 1800 rpm. for 10 min at room temperature, and the supernatant containing PRP (platelet-rich plasma) was collected. The PRP was re-centrifuged at 2300 rpm, for 22 min at room temperature to obtain platelets. The platelets were homogenized using a homogenizer (Ultra-Turrax) followed by centrifugation 3 times at 20,000 rpm, 10 min at 4° C. to obtain a platelet membrane fraction. After protein determination, the membrane fraction was adjusted to 2 mg/ml and preserved in a refrigerator at -80° C. until using for the binding test.
(2) Binding to PGD2 Receptor.
To a binding-reaction solution (50 mM Tris/HCl, pH 7.4, 5 mM MgCl2) (0.2 ml) were added the human platelet membrane fraction (0.1 mg) and 5 nM [^3 H ]PGD2 (115 Ci/mmol), and the mixture was reacted at 4° C. for 90 min. After the reaction, the mixture was filtered through a glass fiber filter paper and washed several times with cooled physiologic saline, then the radioactivity retained on the filter paper was measured. The specific-binding ratio was calculated by subtracting the non-specific binding ratio which is the radio activity similarly measured in the presence of 10 μM PGD2 from the total binding. The inhibitory activity of each compound was expressed as the concentration required for 50% inhibition (IC50), which was determined by depicting a substitution curve by plotting the binding ratio (%) in the presence of each compound, where the binding ratio in the absence of a test compound is 100%.

PGD2 Receptor [2] = target: T1, PGD2 Receptor; experiment: Antagonistic Activity Against PGD2 Receptor Using Human Platelet (cAMP increased by PGD2); assay type: cell-based; conditions: inhibition of cAMP increase by 0.1 μM PGD2 in washed human platelets
Experimental: Experiment 2 Evaluation of Antagonistic Activity Against PGD2 Receptor Using Human Platelet
Peripheral blood was collected from a healthy volunteer using a syringe in which 1/9 volume of a citric acid/dextrose solution was previously added. The sample was subjected to centrifugation at 180 g for 10 min to obtain the supernatant (PRP: platelet rich plasma). The resultant PRP was washed 3 times with a washing buffer and the number of platelet was counted with a micro cell counter. A suspension adjusted to contain the platelets at a final concentration of 5×10^8 /ml was warmed at 37° C., then subjected to the pre-treatment with 3-isobutyl-1-methylxanthine (0.5 mM) for 5 min. To the suspension was added a test compound diluted at various concentration, and 10 minutes later, 0.1 μM PGD2 was added to induce the reaction 2 minutes later, hydrochloric acid was added to terminate the reaction. The platelet was destroyed with an ultrasonic homogenizer. After centrifugation, the cAMP in the supernatant was determined by radioimmunoassay. PGD2 receptor antagonism of a drug was evaluated as follows: the inhibition rate regarding cAMP increased by the addition of PGD2 was determined at each concentration, and the concentration of the (drug required for 50% inhibition (IC50) was calculated. The results are shown below.

Hartley male guinea pig = experiment: Nasal Blockage Model (intranasal pressure of OVA-sensitized guinea pigs); assay type: in vivo; conditions: 30 mg/kg orally 60 min before antigen exposure; intranasal pressure AUC 0-30 min vs vehicle
Experimental: Experiment Using Nasal Blockage Model
Recently, It has been paid an attention to a theory that PGD2 is one of causative substances of nasal blockage caused by allergic rhinitis, and proposed to develop an inhibitor of PGD2 biosynthesis or an antagonist to the PGD2 receptor as a drug reducing nasal blockage. Thus, as to the compounds of the present, invention. the anti-nasal blockage effect was evaluated by measuring the intranasal pressure of guinea pigs.
A 1% ovalbumin (OVA) solution was treated with an ultrasonic nebulizer to obtain an aerosol. Hartley male guinea pig was sensitized by inhaling the aerosol twice each or 10 min at one-week interval. Seven days after the sensitization, the guinea pig was exposed to an antigen to initiate the reaction. Briefly, the trachea of he guinea pig was incised under the anesthesia with pentobarbital (30 mg/kg. i.p.) and cannulas were inserted into the trachea at the pulmonary and nasal cavity sides. […] After arresting the spontaneous respiration of the guinea pig with Gallamin (2 mg/kg, i.v.), 4 ml/time of air was supplied to the snout side with an artificial respirator at the frequency of 70 times/min, and the atmospheric pressure required for the aeration was measured by using a transducer fitted at the branch. The measured pressure was used as a parameter of the nasal cavity resistance. […]

TXA2 Receptor = target: T2, TXA2 Receptor (Homo sapiens, UniProt P21731); experiment: Binding to TXA2 Receptor (human platelet membrane fraction, [3H](+)-S-145 sodium salt); conditions: 2 nM [3H](+)-S-145 sodium salt, pH 7.4, room temperature, 90 min, read-out: Inhibitory activity to TXA2 Receptor: IC50
T2 construct: The human platelet fraction was prepared in accordance with Experiment 1 (1); from tissue; host or cells: human platelets from blood of healthy volunteers (membrane fraction)
T2 sequence (P21731 1-343): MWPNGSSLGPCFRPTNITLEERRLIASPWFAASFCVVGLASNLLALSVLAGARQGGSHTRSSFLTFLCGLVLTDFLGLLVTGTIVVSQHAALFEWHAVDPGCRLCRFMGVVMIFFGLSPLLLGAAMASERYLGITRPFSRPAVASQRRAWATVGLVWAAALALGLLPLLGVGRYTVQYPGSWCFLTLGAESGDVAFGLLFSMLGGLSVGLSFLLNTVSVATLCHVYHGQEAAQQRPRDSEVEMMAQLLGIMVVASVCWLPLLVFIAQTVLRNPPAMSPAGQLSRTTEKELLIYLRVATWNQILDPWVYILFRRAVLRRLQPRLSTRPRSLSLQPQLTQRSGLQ
Experimental: (I) Preparation of Human Platelet Membrane Fraction
The human platelet fraction was prepared in accordance with Experiment 1 (1).
(2) Binding to TXA2 Receptor
To a binding-reaction solution (50 mM Tris/HCl, pH 7.4. 10 mM MgCl2) (0.2 ml) were added the human platelet membrane fraction (0.05 mg) and 2 nM Sodium [^3 H](+)-(5Z)-7-[3-endo-[(phenylsulfonyl)aminol]bicyclo[2.2. 1]hept-2-exo-iy]heptenoate (Japanese Patent Publication (Kokoku) No.79060/1993, hereinafter referred to as (+)-S-145 sodium salt) (26.4 Ci/mmol), and the mixture was reacted at room temperature for 90 min. After the reaction, the resultant mixture was filtered through a glass fiber filter paper and washed several times with cooled physiological saline, then the radioactivity retained on the filter paper was measured. The specific-binding ratio was calculated by subtracting the non-specific binding ratio (the radio activity similarly determined in the presence of 10 μM (+)-S-145 sodium salt) from the total binding. The inhibitory activity of each compound was expressed as the concentration required for 50% inhibition (IC50), which was determined by depicting a substitution curve by plotting the binding ratio (%) in the presence of each compound, where the binding ratio in the absence of a test compound is 100%.

Row | IC50 (PGD2 Receptor [1]) [nM] | IC50 (PGD2 Receptor [2]) [nM] | IC50 (TXA2 Receptor) [nM] | Compound | Inhibitory Rate (%) (Hartley male guinea pig)
1 | 9.6 | 3.9 | – | O=C(O)CCC/C=C\C[C@H]1[C@@H]2CC[C@@H](C2)[C@@H]1NC(=O)c1csc2ccc(O)cc12 [Compd. 1, (5Z)-7-{(1R, 2S, 3S, 4S)-3-(5-Hydroxybenzo[b]thiophen-3-carbonylamino)-bicyclo[2.2. 1]hept-2-yl}-5-heptenoic acid] | 74
2 | 8.2 | 41 | 3800 | O=C(O)CCC/C=C\C[C@H]1[C@@H]2CC[C@@H](C2)[C@@H]1NC(=O)c1csc2ccccc12 [Compd. 4, (5Z)-7-{(1R, 2S, 3S, 4S)-3-(Benzo[b]thiophen-3-carbonylamino)-bicyclo[2.2. 1]hept-2-yl}-5-heptenoic acid] | –
3 | 180 | 8.2 | – | O=C(O)CCC/C=C\C[C@H]1[C@@H]2CC[C@@H](C2)[C@@H]1NC(=O)c1csc2cc(O)ccc12 [Compd. 6] | –
4 | 31 | 360 | – | O=C(O)CCC/C=C\C[C@H]1[C@@H]2CC[C@@H](C2)[C@@H]1NC(=O)c1ccsc1 [Compd. 2, (5Z)-7-{(1R, 2S, 3S, 4S)-3-(Thiophen-3-carbonylamino)-bicyclo[2.2.1]hept-2-yl}-5-heptenoic acid] | –
5 | 87 | 22 | – | O=C(O)CCC/C=C\C[C@H]1[C@@H]2CC[C@@H](C2)[C@@H]1NC(=O)c1cccc2ccsc12 [Compd. 3, (5Z)-7-{(1R, 2S, 3S, 4S)-3-(Benzo[b]thiophen-7-carbonylamino)-bicyclo[2.2. 1]hept-2-yl}-5-heptenoic acid] | –
6 | 57 | 34 | – | O=C(O)CCC/C=C\C[C@H]1[C@@H]2CC[C@@H](C2)[C@@H]1NC(=O)c1csc2ccc(F)cc12 [Compd. 5, (5Z)-7-{(1R, 2S, 3S, 4S)-3-(5-Fluorobenzo[b]thiophen-3-carbonylamino)-bicyclo[2.2. 1]hept-2-yl}-5-heptenoic acid] | –
7 | 5.5 | > 1000 | 1800 | O=C(O)CCC/C=C\C[C@@H]1[C@H]2CC[C@H](C2)[C@H]1NC(=O)c1csc2ccc(O)cc12 [Compd. 18, (5Z)-7-{(1S, 2R, 3R, 4R)-3-(5-Hydroxybenzo[b]thiophen-3-carbonylamino)-bicyclo[2.2. 1]hept-2-yl}-5-heptenoic acid] | –
